# Where two headings read alike, the source gives them in different places.
# Key:
# CYP109E1 [1] = biological target: CYP109E1 (Priestia megaterium, UniProt D5DKI8, K187A); test: in vitro turnover of purified mutant with Adx4-108/AdR, HPLC; assay type: biochemical
# CYP109E1 [2] = biological target: CYP109E1 (Priestia megaterium, UniProt D5DKI8, E245A); test: as above; assay type: biochemical
# CYP109E1 [3] = biological target: T1, CYP109E1 (Priestia megaterium, UniProt D5DKI8); test: co-crystal structure; assay type: binding
# T1 sequence (D5DKI8 1-404): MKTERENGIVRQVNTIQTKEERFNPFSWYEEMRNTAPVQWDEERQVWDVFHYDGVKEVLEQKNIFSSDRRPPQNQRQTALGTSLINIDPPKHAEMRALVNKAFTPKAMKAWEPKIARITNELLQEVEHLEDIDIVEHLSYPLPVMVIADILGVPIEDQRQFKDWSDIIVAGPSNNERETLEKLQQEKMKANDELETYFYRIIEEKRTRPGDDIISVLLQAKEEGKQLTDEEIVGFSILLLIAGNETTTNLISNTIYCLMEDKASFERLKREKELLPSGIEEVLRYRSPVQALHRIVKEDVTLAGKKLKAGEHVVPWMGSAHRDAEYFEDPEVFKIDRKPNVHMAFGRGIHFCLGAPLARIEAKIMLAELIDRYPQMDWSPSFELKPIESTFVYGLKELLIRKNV
# CYP109E1 [4] = biological target: T1, CYP109E1; test: co-crystal structure; assay type: binding; remark: listed apart in the source
SMILES,"Catalytic activity for the formation of 16β-OH-TES, nmol.(nmol P450)^-1.min^-1 (CYP109E1 [1])","Catalytic activity for the formation of 16β-OH-TES, nmol.(nmol P450)^-1.min^-1 (CYP109E1 [2])",Kd (CYP109E1 [3]) [µM],Kd (CYP109E1 [4]) [µM]
"C[C@]12CC[C@H]3[C@@H](CCC4=CC(=O)CC[C@@]43C)[C@@H]1CC[C@@H]2O [compound 11, testosterone]",1.43 ± 0.06 nmol·(nmol P450)^−1·min^−1,4.69 ± 0.04 nmol·(nmol P450)^−1·min^−1,105 ± 10,–
"C[C@]12C[C@H](O)[C@H]3[C@@H](CCC4=CC(=O)CC[C@@]43C)[C@@H]1CC[C@@H]2C(=O)CO [compound 4, corticosterone]",–,–,–,91 ± 8
